According to ChEMBL document CHEMBL1132818, “Use of bicuculline, a GABA antagonist, as a template for the development of a new class of ligands showing positive allosteric modulation of the GABA(A) receptor” (Bioorg Med Chem Lett, 2000):

Columns and labels:
[1] = molecular target: GABA-A receptor; anion channel; experiment: Displacement of [3H]flunitrazepam from GABA-A receptor of rat forebrain tissue
[2] = molecular target: GABA-A receptor; anion channel; experiment: Displacement of [3H]flunitrazepam from GABA-A receptor of rat cerebellar tissue; assay type: protein-complex assay
[3] = molecular target: T1, GABA-A receptor; anion channel (Rattus norvegicus) (UniProt O09028+P15431+P18506+P18508+P19969+P20236+P23574+P23576+P28471+P28473+P30191+P62813+P63079+P63138+Q91ZM7+Q9ES14); experiment: In vitro displacement of [35S]TBPS from Gamma-aminobutyric acid A receptor of rat brain membrane preparations at 10 uM
[4] = molecular target: T1, GABA-A receptor; anion channel (Rattus norvegicus); experiment: In vitro displacement of [3H]-muscimol from Gamma-aminobutyric acid A receptor of rat brain membrane preparations at 100 uM (Limited solubility)
[5] = molecular target: T1, GABA-A receptor; anion channel (Rattus norvegicus); experiment: Displacement of [3H]flunitrazepam from GABA-A receptor of rat brain membrane preparations at 100uM, Limited solubility
[6] = molecular target: T1, GABA-A receptor; anion channel (Rattus norvegicus); experiment: Displacement of [3H]flunitrazepam from GABA-A receptor of rat brain membrane preparations at 10 uM
[7] = molecular target: T2, GABA-A receptor; alpha-1/beta-2/gamma-2 (Rattus norvegicus) (UniProt P18508+P62813+P63138); experiment: (§1) Percent GABA current elicited in Xenopus laevis oocytes expressing rat GABA-A alpha-1-beta-2-gamma-2 subunits at 100 uM [(-)inhibition, (+)stimulation]; assay type: functional, cell-based; conditions: Oocyte
[8] = molecular target: T1, GABA-A receptor; anion channel (Rattus norvegicus); experiment: In vitro displacement of [3H]muscimol from Gamma-aminobutyric acid A receptor of rat brain membrane preparations at 10 uM
[9] = molecular target: T1, GABA-A receptor; anion channel (Rattus norvegicus); experiment: In vitro displacement of [35S]TBPS from Gamma-aminobutyric acid A receptor of rat brain membrane preparations at 100 uM
[10] = molecular target: T1, GABA-A receptor; anion channel (Rattus norvegicus); experiment: Displacement of [3H]flunitrazepam from GABA-A receptor of rat brain membrane preparations at 100 uM
[11] = molecular target: T1, GABA-A receptor; anion channel (Rattus norvegicus); experiment: In vitro displacement of [3H]muscimol from Gamma-aminobutyric acid A receptor of rat brain membrane preparations at 100 uM
[12] = molecular target: T1, GABA-A receptor; anion channel (Rattus norvegicus); experiment: In vitro displacement of [35S]TBPS from Gamma-aminobutyric acid A receptor of rat brain membrane preparations at 100 uM (Limited solubility)
[13] = molecular target: T2, GABA-A receptor; alpha-1/beta-2/gamma-2 (Rattus norvegicus); experiment: Percent GABA current elicited in Xenopus laevis oocytes expressing rat GABA-A alpha-1-beta-2-gamma-2 subunits at 50 uM [(-)inhibition, (+)stimulation]; assay type: functional, cell-based; conditions: Oocyte
[14] = molecular target: T2, GABA-A receptor; alpha-1/beta-2/gamma-2 (Rattus norvegicus); conditions: Oocyte, 1 uM
Description: Percent GABA current elicited in Xenopus laevis oocytes expressing rat GABA-A alpha-1-beta-2-gamma-2 subunits at 1 uM [(-)inhibition, (+)stimulation]

[15] = molecular target: T1, GABA-A receptor; anion channel (Rattus norvegicus); conditions: Brain, Membrane, 10 nM
Description: Displacement of [3H]flunitrazepam from GABA-A receptor of rat brain membrane preparations at 10 nM

[16] = molecular target: T2, GABA-A receptor; alpha-1/beta-2/gamma-2 (Rattus norvegicus); experiment: Percent GABA current elicited in Xenopus laevis oocytes expressing rat GABA-A alpha-1-beta-2-gamma-2 subunits at 10 uM [(-)inhibition, (+)stimulation]; assay type: functional, cell-based; conditions: Oocyte
[17] = as §1; assay type: functional, Oocyte

| SMILES | Displacement [3] | Displacement [6] | GABA current [7] | Displacement [8] | Displacement [9] | Displacement [10] | Displacement [11] | further results |
| --- | --- | --- | --- | --- | --- | --- | --- | --- |
| CC1=C[C@H]([C@@H]2c3ccccc3CCN2C(=O)OCc2ccccc2)OC1=O | 20% | 27% | 208% | -4% |  |  |  | IC50 [1]: 25 µM; IC50 [2]: 17 µM; Displacement [4]: Insoluble; Displacement [5]: Insoluble |
| COc1cc2c(cc1OC)[C@@H]([C@H]1C=C(C)C(=O)O1)N(C)CC2 |  |  | -10% |  | 4% | 12% | -1% |  |
| CC1=C[C@@H]([C@@H]2c3ccccc3CCN2C(=O)OCc2ccccc2)OC1=O | 16% | 43% | 130% | -7% |  |  |  | IC50 [1]: 12 µM; IC50 [2]: 7 µM; Displacement [4]: Insoluble |
| CN1CCc2cc3c(cc2[C@H]1[C@@H]1OC(=O)c2c1ccc1c2OCO1)OCO3 |  |  | -100% | 45% | -1% | 7% |  |  |
| O=C1C=C[C@H]([C@@H]2c3ccccc3CCN2C(=O)OCc2ccccc2)O1 | 18% | 51% | 225% | -9% | 85% |  | -2% |  |
| O=C1C=C[C@H]([C@@H]2c3cc4c(cc3CCN2C(=O)OCc2ccccc2)OCO4)O1 | 18% | 27% |  | -7% |  |  |  | Displacement [4]: Insoluble; Displacement [12]: Insoluble; GABA current [13]: 128% |
| COc1cc2c(cc1OC)[C@@H]([C@@H]1C=C(C)C(=O)O1)N(C)CC2 |  |  | -8% |  | 2% | 8% | 4% |  |
| CC1=C[C@H]([C@@H]2c3cc4c(cc3CCN2C)OCO4)OC1=O | 1% | 6% | -7% |  | 3% | 30% | 5% |  |
| O=C1C=C[C@@H]([C@@H]2c3cc4c(cc3CCN2C(=O)OCc2ccccc2)OCO4)O1 | 19% | 20% |  | -5% |  |  |  | Displacement [4]: Insoluble; Displacement [12]: Insoluble; GABA current [13]: 215% |
| O=C1C=C[C@@H]([C@@H]2c3ccccc3CCN2C(=O)OCc2ccccc2)O1 | 14% | 93% | 281% | -12% | 82% |  | -13% |  |
| COc1cc2c(cc1OC)[C@@H]([C@@H]1C=C(C)C(=O)O1)N(C(=O)OCc1ccccc1)CC2 |  |  | 24% |  | 11% | 4% | -1% |  |
| COc1cc2c(cc1OC)[C@@H]([C@@H]1C=CC(=O)O1)N(C(=O)OCc1ccccc1)CC2 | 5% | 5% | 20% |  | 47% | 15% | -1% |  |
| CN1C(=O)CN=C(c2ccccc2)c2cc(Cl)ccc21 | 25% |  |  |  |  |  | -13% | GABA current [14]: 300%; Displacement [15]: 33% |
| COc1cc2c(cc1OC)[C@@H]([C@H]1C=C(C)C(=O)O1)N(C(=O)OCc1ccccc1)CC2 |  |  | 60% |  | 63% | 31% | -23% |  |
| COc1cc2c(cc1OC)[C@@H]([C@H]1C=CC(=O)O1)N(C(=O)OCc1ccccc1)CC2 | 5% | 15% | 43% | 7% | 50% | 51% | 10% |  |
| O=C1CC[C@@H]([C@@H]2c3ccccc3CCN2C(=O)OCc2ccccc2)O1 | 11% | 96% | 351% | -18% | 82% |  | -2% | IC50 [1]: 0.16 µM; IC50 [2]: 0.06 µM; GABA current [16]: 111% |
| CC1=C[C@@H]([C@@H]2c3cc4c(cc3CCN2C)OCO4)OC1=O |  |  |  |  | 3% | 21% | 3% | GABA current [17]: -3% |
